Laboratory results taken from PubChem BioAssay AID1259407 (Chemical Carcinogenesis Research Information System (CCRIS), 2018).
Calls of active or inactive are those of the source. The rule behind the calls is not given here.

Tested on: CCRIS mutagenicity, Ames/micronucleus/aberration tests
Assay: CCRIS mutagenicity studies
[1] = Test System: AMES SALMONELLA TYPHIMURIUM, Strain/Indicator: TA98, Metabolic Activation: NONE, Method: PREINCUBATION
[2] = Test System: AMES SALMONELLA TYPHIMURIUM, Strain/Indicator: TA100, Metabolic Activation: NONE, Method: PREINCUBATION
[3] = Test System: AMES SALMONELLA TYPHIMURIUM, Strain/Indicator: TA98, Metabolic Activation: NONE, Method: STANDARD PLATE
[4] = Test System: AMES SALMONELLA TYPHIMURIUM, Strain/Indicator: TA100, Metabolic Activation: NONE, Method: STANDARD PLATE

CC1CC(C)C(=O)C1=O (centres undefined)
mutagenic call [1]: inactive; negative
mutagenic call (Test System: AMES SALMONELLA TYPHIMURIUM, Strain/Indicator: TA98, Metabolic Activation: S-9, Method: PREINCUBATION): inactive; negative
mutagenic call [2]: inactive; negative
mutagenic call (Test System: AMES SALMONELLA TYPHIMURIUM, Strain/Indicator: TA100, Metabolic Activation: S-9, Method: PREINCUBATION): inactive; negative
mutagenic call (Test System: AMES SALMONELLA TYPHIMURIUM, Strain/Indicator: TA1535, Metabolic Activation: NONE, Method: PREINCUBATION): inactive; negative
mutagenic call (Test System: AMES SALMONELLA TYPHIMURIUM, Strain/Indicator: TA1535, Metabolic Activation: S-9, Method: PREINCUBATION): inactive; negative
mutagenic call (Test System: AMES SALMONELLA TYPHIMURIUM, Strain/Indicator: TA1537, Metabolic Activation: NONE, Method: PREINCUBATION): inactive; negative
mutagenic call (Test System: AMES SALMONELLA TYPHIMURIUM, Strain/Indicator: TA1537, Metabolic Activation: S-9, Method: PREINCUBATION): inactive; negative
mutagenic call (Test System: E.COLI, Strain/Indicator: WP2 UVRA, Metabolic Activation: NONE, Method: PREINCUBATION): inactive; negative
mutagenic call (Test System: E.COLI, Strain/Indicator: WP2 UVRA, Metabolic Activation: S-9, Method: PREINCUBATION): inactive; negative

Cc1c(N)cccc1N=[N+]([O-])c1cccc(N)c1C
mutagenic call [1]: inactive; negative
mutagenic call (Test System: AMES SALMONELLA TYPHIMURIUM, Strain/Indicator: TA98, Metabolic Activation: RAT, LIVER, S-9, PHENOBARBITAL AND 5,6-BENZOFLAVONE, Method: PREINCUBATION): active; positive
mutagenic call [2]: inactive; negative
mutagenic call (Test System: AMES SALMONELLA TYPHIMURIUM, Strain/Indicator: TA100, Metabolic Activation: RAT, LIVER, S-9, PHENOBARBITAL AND 5,6-BENZOFLAVONE, Method: PREINCUBATION): inactive; negative

O=[N+]([O-])c1ccc2c(c1)oc1ccccc12
mutagenic call (Test System: AMES SALMONELLA TYPHIMURIUM, Strain/Indicator: TA98(1,8-DNP6), Metabolic Activation: NONE, Method: PREINCUBATION): active; positive
mutagenic call (Test System: AMES SALMONELLA TYPHIMURIUM, Strain/Indicator: TA98(1,8-DNP6), Metabolic Activation: NONE, Method: SUSPENSION): active; positive
mutagenic call (Test System: AMES SALMONELLA TYPHIMURIUM, Strain/Indicator: TA98(1,8-DNP6), Metabolic Activation: RAT, LIVER, S-9, PCB (5%), Method: PREINCUBATION): active; positive
mutagenic call (Test System: AMES SALMONELLA TYPHIMURIUM, Strain/Indicator: TA98(NR), Metabolic Activation: NONE, Method: PREINCUBATION): active; positive
mutagenic call (Test System: AMES SALMONELLA TYPHIMURIUM, Strain/Indicator: TA98(NR), Metabolic Activation: NONE, Method: SUSPENSION): active; positive
mutagenic call (Test System: AMES SALMONELLA TYPHIMURIUM, Strain/Indicator: TA98(NR), Metabolic Activation: RAT, LIVER, S-9 (10%), Method: PREINCUBATION): active; positive
mutagenic call (Test System: AMES SALMONELLA TYPHIMURIUM, Strain/Indicator: TA98(NR), Metabolic Activation: RAT, LIVER, S-9, 3-METHYLCHOLANTHRENE (10%), Method: PREINCUBATION): active; positive
mutagenic call (Test System: AMES SALMONELLA TYPHIMURIUM, Strain/Indicator: TA98(NR), Metabolic Activation: RAT, LIVER, S-9, BETA-NAPHTHOFLAVONE (10%), Method: PREINCUBATION): active; positive
mutagenic call (Test System: AMES SALMONELLA TYPHIMURIUM, Strain/Indicator: TA98(NR), Metabolic Activation: RAT, LIVER, S-9, PCB (5%), Method: PREINCUBATION): active; positive
mutagenic call (Test System: AMES SALMONELLA TYPHIMURIUM, Strain/Indicator: TA98(NR), Metabolic Activation: RAT, LIVER, S-9, PCB (10%), Method: PREINCUBATION): active; positive
mutagenic call (Test System: AMES SALMONELLA TYPHIMURIUM, Strain/Indicator: TA98(NR), Metabolic Activation: RAT, LIVER, S-9, PHENOBARBITAL (10%), Method: PREINCUBATION): active; positive
mutagenic call [1]: active; positive
mutagenic call [3]: active; positive
mutagenic call (Test System: AMES SALMONELLA TYPHIMURIUM, Strain/Indicator: TA98, Metabolic Activation: NONE, Method: SUSPENSION): active; positive
mutagenic call (Test System: AMES SALMONELLA TYPHIMURIUM, Strain/Indicator: TA98, Metabolic Activation: RAT, LIVER, S-9, PCB (5%), Method: PREINCUBATION): active; positive
mutagenic call (Test System: AMES SALMONELLA TYPHIMURIUM, Strain/Indicator: TA98, Metabolic Activation: RAT, LIVER, S-9, PCB, Method: SUSPENSION): active; positive
mutagenic call (Test System: AMES SALMONELLA TYPHIMURIUM, Strain/Indicator: TA98, Metabolic Activation: S-9, PHENOBARBITAL AND 5,6-BENZOFLAVONE, Method: STANDARD PLATE): active; positive
mutagenic call [2]: inactive; negative
mutagenic call [4]: active; positive
mutagenic call (Test System: AMES SALMONELLA TYPHIMURIUM, Strain/Indicator: TA100, Metabolic Activation: NONE, Method: SUSPENSION): active; positive
mutagenic call (Test System: AMES SALMONELLA TYPHIMURIUM, Strain/Indicator: TA100, Metabolic Activation: RAT, LIVER, S-9, PCB (5%), Method: PREINCUBATION): inactive; negative
mutagenic call (Test System: AMES SALMONELLA TYPHIMURIUM, Strain/Indicator: TA100, Metabolic Activation: RAT, LIVER, S-9, PCB, Method: SUSPENSION): inactive; negative
mutagenic call (Test System: AMES SALMONELLA TYPHIMURIUM, Strain/Indicator: TA100, Metabolic Activation: S-9, PHENOBARBITAL AND 5,6-BENZOFLAVONE, Method: STANDARD PLATE): active; positive

Nc1ccc(-c2cc(Cl)c(N)c(Cl)c2)cc1
mutagenic call (Test System: AMES SALMONELLA TYPHIMURIUM, Strain/Indicator: TA98, Metabolic Activation: HAMSTER, LIVER, S-9, Method: PREINCUBATION): active; positive
mutagenic call [1]: inactive; negative

C=C(C)C(=O)OCCOCCOCCOC(=O)C(=C)C
mutagenic call (Test System: AMES SALMONELLA TYPHIMURIUM, Strain/Indicator: TA97A, Metabolic Activation: NONE, Method: STANDARD PLATE): inactive; negative
mutagenic call (Test System: AMES SALMONELLA TYPHIMURIUM, Strain/Indicator: TA97A, Metabolic Activation: RAT, LIVER, S-9, PHENOBARBITAL AND BETA-NAPHTHAFLAVONE, Method: STANDARD PLATE): inactive; negative
mutagenic call [3]: inactive; negative
mutagenic call (Test System: AMES SALMONELLA TYPHIMURIUM, Strain/Indicator: TA98, Metabolic Activation: RAT, LIVER, S-9, PHENOBARBITAL AND BETA-NAPHTHAFLAVONE, Method: STANDARD PLATE): inactive; negative
mutagenic call [4]: inactive; negative
mutagenic call (Test System: AMES SALMONELLA TYPHIMURIUM, Strain/Indicator: TA100, Metabolic Activation: RAT, LIVER, S-9, PHENOBARBITAL AND BETA-NAPHTHAFLAVONE, Method: STANDARD PLATE): inactive; negative
mutagenic call (Test System: AMES SALMONELLA TYPHIMURIUM, Strain/Indicator: TA102, Metabolic Activation: NONE, Method: STANDARD PLATE): inactive; negative
mutagenic call (Test System: AMES SALMONELLA TYPHIMURIUM, Strain/Indicator: TA102, Metabolic Activation: RAT, LIVER, S-9, PHENOBARBITAL AND BETA-NAPHTHAFLAVONE, Method: STANDARD PLATE): inactive; negative
mutagenic call (Test System: CHINESE HAMSTER V-79, Strain/Indicator: V-79 (HPRT)/6-THIOGUANINE, Metabolic Activation: NONE): active; positive
mutagenic call (Test System: CHINESE HAMSTER V-79, Strain/Indicator: V-79 (HPRT)/6-THIOGUANINE, Metabolic Activation: R, L, S-9, PHENOBARBITAL AND BETA-NAPHTHOFLAVONE): inactive; negative

O=[N+]([O-])c1ccc(Nc2ccccc2O)c([N+](=O)[O-])c1
mutagenic call (Test System: AMES SALMONELLA TYPHIMURIUM, Strain/Indicator: TA97, Metabolic Activation: HAMSTER, LIVER, S-9, AROCLOR 1254 (10%), Method: PREINCUBATION): active; positive
mutagenic call (Test System: AMES SALMONELLA TYPHIMURIUM, Strain/Indicator: TA97, Metabolic Activation: NONE, Method: PREINCUBATION): active; positive
mutagenic call (Test System: AMES SALMONELLA TYPHIMURIUM, Strain/Indicator: TA97, Metabolic Activation: RAT, LIVER, S-9, AROCLOR 1254 (10%), Method: PREINCUBATION): active; positive
mutagenic call (Test System: AMES SALMONELLA TYPHIMURIUM, Strain/Indicator: TA98, Metabolic Activation: HAMSTER, LIVER, S-9, AROCLOR 1254 (10%), Method: PREINCUBATION): active; positive
mutagenic call [1]: active; positive
mutagenic call (Test System: AMES SALMONELLA TYPHIMURIUM, Strain/Indicator: TA98, Metabolic Activation: RAT, LIVER, S-9, AROCLOR 1254 (10%), Method: PREINCUBATION): active; positive
mutagenic call (Test System: AMES SALMONELLA TYPHIMURIUM, Strain/Indicator: TA100, Metabolic Activation: HAMSTER, LIVER, S-9, AROCLOR 1254 (10%), Method: PREINCUBATION): active; positive
mutagenic call [2]: inactive; negative
mutagenic call (Test System: AMES SALMONELLA TYPHIMURIUM, Strain/Indicator: TA100, Metabolic Activation: RAT, LIVER, S-9, AROCLOR 1254 (10%), Method: PREINCUBATION): active; positive
mutagenic call (Test System: AMES SALMONELLA TYPHIMURIUM, Strain/Indicator: TA1535, Metabolic Activation: RAT, LIVER, S-9, AROCLOR 1254 (10%), Method: PREINCUBATION): active; positive
